{"source": "patent US12194019B2", "about": "“Compositions and methods for treating pain with wogonin” (BRIGHAM YOUNG UNIVERSITY, priority 2018, dated 2025)", "key": {"[1]": {"system": "OA mouse model (surgical destabilization of the medial meniscal ligament, DMM)", "experiment": "Activity wheel use after DMM surgery, topical wogonin cream (Example 1)", "assay_type": "in vivo", "method": "The use of wogonin for the treatment of osteoarthritic (OA) pain was investigated. Specifically, the benefit of using small doses of wogonin applied topically in a cream with penetration enhancers was investigated. The cream formulation shown in Table 2 was used in this study.\n(§1) An OA mouse model was used to determine the efficacy of wogonin treatment. OA-like disease was induced by surgical destabilization of the medial meniscal ligament (DMM) of laboratory mice. Repair of the knee was assessed using the Modified Mankin Score which is widely accepted as the way to objectively compare OA progression by histological evaluation of a knee joint (See Larkin D J et al., Frontiers in physiology. 2013; 4:121 and Mankin H J. The New England journal of medicine. 1974; 291(24):1285-92). The mice were housed in activity wheel cages linked to a computer for activity tracking throughout the duration of the experiment. Twenty-four hours after surgical intervention the following treatments were applied topically to the affected knee: 0.00000142 g wogonin (500 μM wogonin) (n=6); 0.0000000028 g wogonin (10 μM wogonin) (n=6); and 10 μl vehicle (n=6). Treatment was applied every third day for 28 days.\nAt day 28 this pattern was repeated."}, "OA mouse model (DMM) [2]": {"system": "OA mouse model (DMM)", "experiment": "Modified Mankin score / histological evaluation of knee joint after DMM surgery (Example 1)", "assay_type": "in vivo", "method": "as §1\n(§2) While the wheel use data were encouraging, inhibiting inflammation alone and blocking pain, is insufficient to block the progression of OA. At the conclusion of the experiment (day 28) mice were sacrificed, knees collected, fixed and studied for Modified Mankin score and HtrA1 expression as previously reported in Spencer K MS and Jeffrey Z Kartchner W. Journal of Arthritis. 2015; 04(03). HtrA1 is the first in the biomarker cascade that is associated with OA progression.\n(§3) Mouse knee OA was induced by surgical destabilization of the medial meniscal ligament (DMM surgery) and mice were treated with 10 μM of wogonin. Controls were DMM plus vehicle. […] Note the fissure and rough articular cartilage surface (see arrows) in the control knee."}, "HtrA1": {"system": "HtrA1", "experiment": "HtrA1 immunohistochemical staining in knee joints after DMM surgery (Example 1)", "assay_type": "in vivo, mouse", "conditions": "knees treated with 10 μM wogonin, day 28", "source_text": "as §2, §3"}, "OA mouse model (DMM) [3]": {"system": "OA mouse model (DMM)", "experiment": "Activity wheel use after DMM surgery, wogonin in DMSO or in cream (Example 2)", "assay_type": "in vivo", "method": "(§4) A second experiment using small doses of wogonin applied topically either in DMSO or in a cream with penetration enhancers was conducted. In this study, OA was induced by DMM surgery. Twenty four hours after surgery treatment was applied to the affected knee. The treatments included 0.00000142 g wogonin in 10 μl DMSO (500 μM wogonin) applied to the skin at the location of patellar tendon (n=5); 10 μl DMSO applied to the skin at the location of patellar tendon (n=5); 0.0000000028 g wogonin (10 μl G2 Cream E/10 μM wogonin) to the skin at the location of the patellar tendon (n=5). Treatment was applied every third day for 28 days. Immediately after surgery, mice were placed in an activity wheel cage in which wheel use was recorded on a computer. […] At day 28 this pattern was repeated."}, "OA mouse model (DMM) [4]": {"system": "OA mouse model (DMM)", "experiment": "Biomarker and Mankin scoring of knees (Example 2)", "assay_type": "in vivo", "conditions": "500 μM (DMSO) vs 10 μM (cream) wogonin", "method": "as §4\nAgain, below 1 μM and there would be insufficient wogonin to have an effect. Above 500 μM and there would be too much suppression of inflammation and ceramides. TGF-β1 is inhibited and chondrocytes can't return to homeostasis, […]."}, "[5]": {"system": "TGF-β1 gene expression in human chondrocytes (TC28a2)", "experiment": "qRTPCR of TGF-β1 gene expression in human chondrocytes", "assay_type": "cell-based", "method": "Human chondrocytes (TC28a2 Sigma-Aldrich, St. Louis, MO, USA) were cultured in EmbryoMax® DMEM (SLM-120 B Millipore, St. Louis, MO, USA) supplemented with 10% Fetal Calf Serum (F-2442-50 ML Sigma-Aldrich, St. Louis, MO, USA) to 80% confluence. Treatments consisted of: • 1. Untreated plate: Remove old media and replace with 10 mL fresh media. Incubate 4 hours. Remove media, rinse 3× with PBS and collect total RNA according to manufacturer's protocol ([…] ZYMO Research, Irvine, CA, USA). • 2. Treat with 10 μM wogonin (dissolved in DMSO). Remove old media and replace with 10 mL conditioned media containing wogonin. Incubate 4 hours. Remove media, rinse 3× with PBS and collect total RNA according to manufacturer's protocol ([…] ZYMO Research, Irvine, CA, USA). • 3. Treat with 1 ng/mL IL-1β (dissolved in dds water). Remove old media and replace with 10 mL conditioned media containing IL-1β. Incubate 4 hours. Remove media, rinse 3× with PBS and collect total RNA according to manufacturer's protocol ([…] ZYMO Research, Irvine, CA, USA). • 4. Treat with 10 μM wogonin; wait 1 hour and add 1 ng/mL IL-1β, incubate 4 hours. Remove old media and replace with 10 mL conditioned media containing wogonin. Incubate 1 hour. […] Quantitative Real-time Polymerase Chain Reaction (qRTPCR) was performed using the Life Technologies One Step Plus Sequence Detection System and Software (Life Technologies). […]"}, "[6]": {"system": "BBS 3 gene expression in human chondrocytes (TC28a2)", "experiment": "qRTPCR of BBS 3 gene expression in human chondrocytes", "assay_type": "cell-based", "method": "Human chondrocytes (TC28a2 Sigma-Aldrich, St. Louis, MO, USA) were cultured in EmbryoMax® DMEM (SLM-120 B Millipore, St. Louis, MO, USA) supplemented with 10% Fetal Calf Serum (F-2442-50 ML Sigma-Aldrich, St. Louis, MO, USA) to 80% confluence. Treatments consisted of: • 1. Untreated plate: Remove old media and replace with 10 mL fresh media. Incubate 4 hours. Remove media, rinse 3× with PBS and collect total RNA according to manufacturer's protocol ([…] ZYMO Research, Irvine, CA, USA). • 2. Treat with 10 μM wogonin (dissolved in DMSO). Remove old media and replace with 10 mL conditioned media containing wogonin. Incubate 4 hours. Remove media, rinse 3× with PBS and collect total RNA according to manufacturer's protocol ([…] ZYMO Research, Irvine, CA, USA). • 3. Treat with 1 ng/mL IL-1β (dissolved in dds water). Remove old media and replace with 10 mL conditioned media containing IL-1β. Incubate 4 hours. Remove media, rinse 3× with PBS and collect total RNA according to manufacturer's protocol ([…] ZYMO Research, Irvine, CA, USA). • 4. Treat with 10 μM wogonin; wait 1 hour and add 1 ng/mL IL-1β, incubate 4 hours. Remove old media and replace with 10 mL conditioned media containing wogonin. Incubate 1 hour. Add 10 μL 1 ng/mL IL-1β. Pipet media up and down in cell culture dish 3× gently to mix. Incubate 4 hours. Remove media, rinse 3× with PBS and collect total RNA according to manufacturer's protocol ([…] ZYMO Research, Irvine, CA, USA). cDNA was made from total RNA according to manufacturer's protocol (1725038 BIO-RAD, Hercules, CA, USA). Quantitative Real-time Polymerase Chain Reaction (qRTPCR) was performed using the Life Technologies One Step Plus Sequence Detection System and Software (Life Technologies). SYBR-green-based PrimeTime assays (IDT) were used to detect human TGF-β1 and BBS 3."}, "mouse formalin test": {"system": "mouse formalin test", "conditions": "intraperitoneal injection, 200 mg/kg; cited from earlier work"}, "MMP-3": {"system": "MMP-3", "conditions": "intra-articular injection, inflammation initiated by IL-1β; cited from earlier work"}}, "note": "Marks after values point to notes of the source that are not given here.", "data": [{"compound": "COc1c(O)cc(O)c2c(=O)cc(-c3ccccc3)oc12", "note": "[Wogonin, 5,7-dihydroxy-8-methoxyflavone]", "values": [{"measurement": "Average Wheel Use", "setting": "[1]; 10 μM wogonin cream topical, Day 7", "value": "12443**"}, {"measurement": "Average Wheel Use", "setting": "[1]; 10 μM wogonin cream topical, Day 7, listed as wogonin", "value": "significantly higher wheel use than control or vehicle alone"}, {"measurement": "Average Wheel Use", "setting": "[1]; 10 μM wogonin cream topical, Day 14", "value": "22000***"}, {"measurement": "Average Wheel Use", "setting": "[1]; 10 μM wogonin cream topical, Day 14, listed as wogonin", "value": "higher activity wheel use than those receiving 500 μM"}, {"measurement": "Average Wheel Use", "setting": "[1]; 10 μM wogonin cream topical, Day 28", "value": "19358**"}, {"measurement": "Average Wheel Use", "setting": "[1]; 500 μM wogonin cream topical to knee every third day, Day 7", "value": "12608**"}, {"measurement": "Average Wheel Use", "setting": "[1]; 500 μM wogonin cream topical to knee every third day, Day 7, listed as wogonin", "value": "significantly higher wheel use than control or vehicle alone"}, {"measurement": "Average Wheel Use", "setting": "[1]; 500 μM wogonin cream topical, Day 14", "value": "17910**"}, {"measurement": "Average Wheel Use", "setting": "[1]; 500 μM wogonin cream topical, Day 28", "value": "16528*"}, {"measurement": "OA as measured by Modified Mankin score", "setting": "OA mouse model (DMM) [2]; 1 μM wogonin applied topically", "value": "sufficient to significantly reduce OA"}, {"measurement": "Benefit in reducing the progression of OA", "setting": "OA mouse model (DMM) [2]; 10 μM compared to 500 μM wogonin", "value": "greater benefit"}, {"measurement": "Modified Mankin score of OA", "setting": "OA mouse model (DMM) [2]; 10 μM wogonin topical vs DMM plus vehicle, day 28", "value": "statistically (p>0.05) lower"}, {"measurement": "Effect on inflammation and biomarkers", "setting": "OA mouse model (DMM) [2]; dosages above 500 μM wogonin", "value": "too much suppression of inflammation and biomarkers"}, {"measurement": "Effect on OA", "setting": "OA mouse model (DMM) [2]; dosages below 1 μM wogonin", "value": "insufficient to have an effect"}, {"measurement": "Articular cartilage surface (histology)", "setting": "OA mouse model (DMM) [2]; knees treated with 10 μM wogonin, day 28", "value": "essentially normal"}, {"measurement": "Expression of HtrA1 (immunohistochemical staining)", "setting": "HtrA1", "value": "essentially absent"}, {"measurement": "Average (activity wheel use)", "setting": "OA mouse model (DMM) [3]; 500 μM wogonin in 10 μl DMSO topical, Day 7, listed as Wogonin + DMSO", "value": "12608*"}, {"measurement": "Average (activity wheel use)", "setting": "OA mouse model (DMM) [3]; 500 μM wogonin in 10 μl DMSO topical, Day 7, listed as wogonin in DMSO", "value": "significantly higher wheel use than DMSO only"}, {"measurement": "Average (activity wheel use)", "setting": "OA mouse model (DMM) [3]; 500 μM wogonin in DMSO topical, Day 14, listed as DMSO+wogonin", "value": "no difference"}, {"measurement": "Average (activity wheel use)", "setting": "OA mouse model (DMM) [3]; 500 μM wogonin in DMSO topical, Day 14, listed as Wogonin + DMSO", "value": 15191}, {"measurement": "Average (activity wheel use)", "setting": "OA mouse model (DMM) [3]; 500 μM wogonin in DMSO topical, Day 28", "value": 15492}, {"measurement": "Biomarker and Mankin scoring of knees", "setting": "OA mouse model (DMM) [4]", "value": "higher dose of wogonin is beneficial initially but the lower dose remained beneficial throughout the experiment"}, {"measurement": "Drop in gene expression of TGF-β1", "setting": "[5]; 10 μM wogonin pre-treatment 1 hour, then 1 ng/mL IL-1β 4 hours", "value": "< 40", "unit": "%"}, {"measurement": "Lowering of the wogonin response (BBS 3 gene expression) by IL-1β", "setting": "[6]; 10 μM wogonin pre-treatment, then 1 ng/mL IL-1β", "value": "almost half"}, {"measurement": "Increase in gene expression of BBS 3", "setting": "[6]; 10 μM wogonin, 4 hours", "value": 125, "unit": "%"}, {"measurement": "Increase in BBS 3 expression", "setting": "[6]; wogonin, human chondrocytes", "value": 1.25, "unit": "fold"}, {"measurement": "Pain symptoms in mouse formalin test", "setting": "mouse formalin test", "value": "improvement of pain symptoms"}, {"measurement": "MMP-3 expression in articular cartilage", "setting": "MMP-3", "value": "decreased MMP-3 expression"}]}, {"compound": "IL-1β: pro-inflammatory cytokine used at 1 ng/mL to treat human chondrocytes [reference compound]", "values": [{"measurement": "Drop in gene expression of TGF-β1", "setting": "[5]; 1 ng/mL IL-1β, 4 hours, vs untreated", "value": 80, "unit": "%"}, {"measurement": "Effect on BBS 3 gene expression", "setting": "[6]; 1 ng/mL IL-1β alone, 4 hours", "value": "no effect"}]}]}
